Measurements reported in article PMC11272821, “Mechanistic safety assessment via multi-omic characterisation of systemic pathway perturbations following in vivo MAT2A inhibition” (Archives of Toxicology, 2024).

Columns and labels:
[1] = test system: HCT116 MTAP KO cells; assay: HCT116 cell SDMA assay, MTAP KO; type: cell-based
From the text: The structure and in vitro properties of the compound are shown in Table 1 together with potency in the HCT116 isogenic cell line (MTAP WT and KO) and in the MAT2A biochemical assay (SAM endpoint).

[2] = test system: 86 targets; assay: Secondary pharmacology profiling against 86 targets (Eurofins); details: BID dosing of 3, 10 or 30 mg/kg for 7 days
Description: (§1) Secondary pharmacology assays were performed at Eurofins using standard experimental techniques against a total of 86 targets across a broad pharmacological space. Assay details along with experimental protocols are described at https://www.eurofinsdiscoveryservices.com. […] Assays measuring substrate turnover or phosphorylation by isolated proteins were used for kinase and enzyme targets, allowing direct determination of the mode of action of the compounds. […] Assays were run in eight points concentration response mode with half log dilutions and IC50, EC50 or Ki (Cheng and Prusoff [1973]) values determined.

[3] = test system: THP-1; assay: THP1 cytotoxicity; type: cell-based; details: read-out: THP-1 Cytotox IC50
From the text: Full curve IC50 (µM) for hERG (human ether-a-go-go-related gene) and the cardiac ion channel panel (sodium and potassium ion channels; Nav1.5, IKs, Kv4.3), along with the L-type Calcium channel (Cav-1.2 Ver; verapamil, DIL; diltiazem), HepG2 C3A 3D spheroids, HepG2 C3A (2D cultures in glucose or galactose media), and THP1 cytotoxicity.

[4] = LogD (pH 7.4); type: physicochemical
[5] = 7-day-rat investigative safety study (in-life, histopathology, clinical chemistry); type: in vivo; details: for liver microscopic examination, hepatocyte glycogen stores: 30 mg/kg, compared with vehicles
Description: All in vivo experimental procedures were conducted in accordance with United Kingdom legislation (Animals (Scientific Procedures) Act, 1986) and were compliant with the ARRIVE guidelines. 8–10 week old male (210–230 g) Crl:WI Han Wistar rats (Charles River Laboratories Ltd, UK) were acclimatised to the facility for 10 days and then randomised to groups based on bodyweight.
Following euthanasia and blood sample collections, animals were necropsied and subjected to gross examination. Samples of liver, brain and heart were collected and fixed in 10% neutral buffered formalin at room temperature for 48 h, followed by routine histology processing (Leica Biosystems) to paraffin embedded wax blocks. Paraffin embedded tissues were cut into […] sections using a microtome (Leica Biosystems) and mounted on glass microscope slides. Tissue sections were stained with hematoxylin and eosin and coverslipped. Stained slides were digitally scanned using an AT2 Scanscope pathology slide scanner (Leica Biosystems) and whole slide images were reviewed by a veterinary pathologist.
A whole blood sample (2.0 mL) was collected into lithium heparin from the caudal vena cava under isoflurane/oxygen anaesthesia immediately prior to euthanasia. Blood samples were centrifuged for 10 min at 4 °C to separate the plasma fraction. Plasma samples were divided into 0.5 mL aliquots and frozen at […] for storage prior to chemistry analysis. Plasma chemistry analysis was performed by Charles River Laboratories (Edinburgh, Scotland) following standard procedures.

[6] = Rat plasma fraction unbound by rapid equilibrium dialysis; type: in vitro ADME
[7] = molecular target: T1, Neurotrophic receptor kinase 1 (NRK1) (Homo sapiens, UniProt P04629); assay: Enzyme assay; type: biochemical
T1 construct: Eurofins
Description: as §1

[8] = molecular target: T2, Phosphodiesterase PDE4D2 (Homo sapiens, UniProt Q08499); assay: Enzyme assay; type: biochemical
T2 construct: Eurofins
Description: as §1

[9] = molecular target: T3, Thromboxane A2 synthase (Homo sapiens, UniProt P24557); assay: Enzyme assay; type: biochemical
T3 construct: Eurofins
Description: as §1

[10] = molecular target: T4, Glycogen synthase kinase-3 β (Homo sapiens, UniProt P49841); assay: Enzyme assay; type: biochemical
T4 construct: Eurofins
Description: as §1

[11] = molecular target: T5, Fibroblast growth factor receptor 1 kinase (FGFR1 kinase) (Homo sapiens, UniProt P11362); assay: Enzyme assay; type: biochemical
T5 construct: Eurofins
Description: as §1

[12] = molecular target: T6, Aurora A kinase (Homo sapiens, UniProt O14965); assay: Enzyme assay; type: biochemical
T6 construct: Eurofins
Description: as §1

[13] = molecular target: T7, Kinase insert domain receptor kinase (KDR) (Homo sapiens, UniProt P35968); assay: Enzyme assay; type: biochemical
T7 construct: Eurofins
Description: as §1

[14] = molecular target: T8, Prostaglandin-endoperoxide synthase 2 (COX2) (Homo sapiens, UniProt P35354); assay: Enzyme assay; type: biochemical
T8 construct: Eurofins
Description: as §1

[15] = molecular target: T9, Phosphodiesterase PDE10A2 (Homo sapiens, UniProt Q9Y233); assay: Enzyme assay; type: biochemical
T9 construct: Eurofins
Description: as §1

T3 sequence (P24557 whole entry): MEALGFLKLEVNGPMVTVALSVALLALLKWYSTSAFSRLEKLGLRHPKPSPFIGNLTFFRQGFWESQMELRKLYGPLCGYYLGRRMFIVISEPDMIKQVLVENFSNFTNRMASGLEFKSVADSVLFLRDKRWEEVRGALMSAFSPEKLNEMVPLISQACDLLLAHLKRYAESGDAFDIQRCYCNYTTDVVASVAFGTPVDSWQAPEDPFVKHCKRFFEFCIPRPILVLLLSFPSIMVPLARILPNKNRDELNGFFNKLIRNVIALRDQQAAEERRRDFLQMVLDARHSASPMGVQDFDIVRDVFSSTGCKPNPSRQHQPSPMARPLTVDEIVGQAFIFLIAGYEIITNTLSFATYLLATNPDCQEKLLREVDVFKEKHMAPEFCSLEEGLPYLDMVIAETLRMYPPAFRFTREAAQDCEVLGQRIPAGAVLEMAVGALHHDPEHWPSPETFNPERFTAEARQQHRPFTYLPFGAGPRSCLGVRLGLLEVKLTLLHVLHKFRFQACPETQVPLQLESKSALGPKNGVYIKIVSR
T7 sequence (P35968 20-1356): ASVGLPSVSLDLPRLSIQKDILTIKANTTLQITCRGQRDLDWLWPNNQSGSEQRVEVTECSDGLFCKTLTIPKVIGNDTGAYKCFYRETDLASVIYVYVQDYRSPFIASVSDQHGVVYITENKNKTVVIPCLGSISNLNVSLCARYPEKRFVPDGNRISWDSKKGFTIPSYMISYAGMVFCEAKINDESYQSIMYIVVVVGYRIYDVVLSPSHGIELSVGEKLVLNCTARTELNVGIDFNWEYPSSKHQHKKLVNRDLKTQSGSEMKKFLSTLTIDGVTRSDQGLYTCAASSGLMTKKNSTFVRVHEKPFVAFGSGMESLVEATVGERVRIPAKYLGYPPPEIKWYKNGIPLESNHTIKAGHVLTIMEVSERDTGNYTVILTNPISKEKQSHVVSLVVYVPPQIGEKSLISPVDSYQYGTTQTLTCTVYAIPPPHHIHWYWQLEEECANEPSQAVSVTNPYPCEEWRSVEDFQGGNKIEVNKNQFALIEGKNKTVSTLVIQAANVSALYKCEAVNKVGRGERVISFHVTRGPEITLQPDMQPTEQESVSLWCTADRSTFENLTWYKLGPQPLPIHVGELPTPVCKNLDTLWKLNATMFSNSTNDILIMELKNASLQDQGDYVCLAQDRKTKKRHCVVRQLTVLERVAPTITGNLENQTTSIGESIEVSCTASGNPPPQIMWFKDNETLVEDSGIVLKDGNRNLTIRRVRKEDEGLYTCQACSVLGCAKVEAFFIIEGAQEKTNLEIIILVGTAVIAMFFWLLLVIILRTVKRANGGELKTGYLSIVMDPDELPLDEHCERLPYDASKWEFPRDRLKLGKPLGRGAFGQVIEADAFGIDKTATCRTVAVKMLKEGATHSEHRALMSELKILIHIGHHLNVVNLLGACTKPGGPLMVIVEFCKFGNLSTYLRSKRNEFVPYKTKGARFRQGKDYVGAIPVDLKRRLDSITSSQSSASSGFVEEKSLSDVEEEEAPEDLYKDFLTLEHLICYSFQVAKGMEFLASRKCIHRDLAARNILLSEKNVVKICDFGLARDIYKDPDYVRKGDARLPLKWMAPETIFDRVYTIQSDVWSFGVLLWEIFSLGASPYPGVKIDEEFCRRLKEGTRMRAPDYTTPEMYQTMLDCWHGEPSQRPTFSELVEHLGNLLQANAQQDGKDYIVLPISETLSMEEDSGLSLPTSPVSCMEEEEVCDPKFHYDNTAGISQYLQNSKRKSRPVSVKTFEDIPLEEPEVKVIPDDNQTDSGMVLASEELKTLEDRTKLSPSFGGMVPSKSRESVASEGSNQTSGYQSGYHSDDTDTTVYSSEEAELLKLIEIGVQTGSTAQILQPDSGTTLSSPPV
T6 sequence (O14965 whole entry): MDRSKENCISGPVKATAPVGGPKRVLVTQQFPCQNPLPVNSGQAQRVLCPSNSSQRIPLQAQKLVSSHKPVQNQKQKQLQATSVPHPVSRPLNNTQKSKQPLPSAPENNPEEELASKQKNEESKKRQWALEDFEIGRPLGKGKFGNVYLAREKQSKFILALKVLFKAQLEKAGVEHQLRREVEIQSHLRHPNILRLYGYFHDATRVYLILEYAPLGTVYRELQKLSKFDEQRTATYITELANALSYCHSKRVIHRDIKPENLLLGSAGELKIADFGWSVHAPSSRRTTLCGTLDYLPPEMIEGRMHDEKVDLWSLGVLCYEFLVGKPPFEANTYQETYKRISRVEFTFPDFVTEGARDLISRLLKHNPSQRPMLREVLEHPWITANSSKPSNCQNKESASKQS
T4 sequence (P49841 whole entry): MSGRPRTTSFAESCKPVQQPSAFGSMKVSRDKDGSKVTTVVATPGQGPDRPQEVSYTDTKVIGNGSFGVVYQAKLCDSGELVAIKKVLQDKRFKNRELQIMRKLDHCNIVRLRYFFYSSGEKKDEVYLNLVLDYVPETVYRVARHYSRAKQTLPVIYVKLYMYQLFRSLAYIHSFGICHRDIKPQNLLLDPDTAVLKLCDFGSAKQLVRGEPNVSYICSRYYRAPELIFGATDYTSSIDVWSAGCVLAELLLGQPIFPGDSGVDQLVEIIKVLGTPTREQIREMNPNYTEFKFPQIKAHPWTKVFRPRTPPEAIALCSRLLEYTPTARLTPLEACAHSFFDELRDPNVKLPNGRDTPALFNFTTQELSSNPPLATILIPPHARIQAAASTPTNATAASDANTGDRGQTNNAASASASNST
T8 sequence (P35354 18-604): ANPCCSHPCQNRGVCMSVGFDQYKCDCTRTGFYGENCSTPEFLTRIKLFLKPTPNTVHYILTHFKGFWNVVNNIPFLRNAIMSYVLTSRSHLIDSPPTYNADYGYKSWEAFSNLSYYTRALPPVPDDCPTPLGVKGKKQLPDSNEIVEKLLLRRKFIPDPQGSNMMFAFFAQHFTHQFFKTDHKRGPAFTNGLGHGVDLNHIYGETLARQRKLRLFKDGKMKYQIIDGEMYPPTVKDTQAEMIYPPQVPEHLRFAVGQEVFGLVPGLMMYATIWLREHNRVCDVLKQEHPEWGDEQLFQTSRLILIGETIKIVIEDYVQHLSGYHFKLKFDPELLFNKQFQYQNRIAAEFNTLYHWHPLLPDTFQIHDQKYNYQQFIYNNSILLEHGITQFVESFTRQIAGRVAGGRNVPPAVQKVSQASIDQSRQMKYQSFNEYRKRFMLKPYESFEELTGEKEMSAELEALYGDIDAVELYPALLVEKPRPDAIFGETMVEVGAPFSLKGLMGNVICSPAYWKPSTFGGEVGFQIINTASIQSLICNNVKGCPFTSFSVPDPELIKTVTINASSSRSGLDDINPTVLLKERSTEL
T9 sequence (Q9Y233 267-1055 limits assumed): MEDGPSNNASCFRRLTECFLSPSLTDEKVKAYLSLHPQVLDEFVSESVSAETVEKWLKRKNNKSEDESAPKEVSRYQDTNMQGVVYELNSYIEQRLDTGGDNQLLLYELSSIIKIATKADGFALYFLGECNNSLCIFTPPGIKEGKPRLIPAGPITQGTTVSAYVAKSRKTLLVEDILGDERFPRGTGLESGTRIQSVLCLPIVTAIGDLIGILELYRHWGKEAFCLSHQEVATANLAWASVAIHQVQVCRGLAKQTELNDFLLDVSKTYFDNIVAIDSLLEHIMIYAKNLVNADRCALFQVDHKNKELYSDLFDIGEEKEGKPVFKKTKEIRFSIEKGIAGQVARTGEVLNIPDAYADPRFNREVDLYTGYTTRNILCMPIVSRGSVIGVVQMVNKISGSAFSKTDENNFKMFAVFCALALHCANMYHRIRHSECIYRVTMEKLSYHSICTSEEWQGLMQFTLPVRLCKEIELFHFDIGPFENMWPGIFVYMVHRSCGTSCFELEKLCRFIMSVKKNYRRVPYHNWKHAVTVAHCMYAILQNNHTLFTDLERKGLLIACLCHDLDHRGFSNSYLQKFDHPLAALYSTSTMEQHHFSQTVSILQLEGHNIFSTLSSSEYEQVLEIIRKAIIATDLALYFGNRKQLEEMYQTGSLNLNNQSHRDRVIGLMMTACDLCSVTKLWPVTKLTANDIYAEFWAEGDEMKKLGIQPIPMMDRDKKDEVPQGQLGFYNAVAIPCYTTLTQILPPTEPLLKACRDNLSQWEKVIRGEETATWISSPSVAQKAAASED
T5 sequence (P11362 22-822): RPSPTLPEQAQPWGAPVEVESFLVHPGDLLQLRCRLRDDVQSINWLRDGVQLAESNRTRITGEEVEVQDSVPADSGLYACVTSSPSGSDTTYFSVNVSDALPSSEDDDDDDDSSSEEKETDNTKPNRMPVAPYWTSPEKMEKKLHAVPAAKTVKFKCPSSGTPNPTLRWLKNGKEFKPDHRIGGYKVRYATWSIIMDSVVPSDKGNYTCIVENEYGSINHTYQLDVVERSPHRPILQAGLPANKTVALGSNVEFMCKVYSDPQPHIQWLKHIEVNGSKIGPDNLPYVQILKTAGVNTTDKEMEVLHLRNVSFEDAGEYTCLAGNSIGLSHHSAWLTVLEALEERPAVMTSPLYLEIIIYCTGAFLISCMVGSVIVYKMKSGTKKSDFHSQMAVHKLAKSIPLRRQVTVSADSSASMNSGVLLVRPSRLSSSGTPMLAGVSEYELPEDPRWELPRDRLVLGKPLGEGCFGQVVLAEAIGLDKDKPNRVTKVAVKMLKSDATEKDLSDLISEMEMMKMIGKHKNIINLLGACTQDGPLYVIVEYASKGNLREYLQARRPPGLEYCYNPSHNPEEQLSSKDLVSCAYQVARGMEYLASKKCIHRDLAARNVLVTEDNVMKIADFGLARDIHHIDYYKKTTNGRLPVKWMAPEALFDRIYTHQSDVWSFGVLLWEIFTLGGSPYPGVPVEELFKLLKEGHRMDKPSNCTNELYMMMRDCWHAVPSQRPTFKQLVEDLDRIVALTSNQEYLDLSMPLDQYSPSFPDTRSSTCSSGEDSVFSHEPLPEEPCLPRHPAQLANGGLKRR

For `Cn1cc2cc(-c3cc4[nH]nc(C5CC5)c4n(-c4ccc(OC(F)F)cc4)c3=O)ccc2n1` [AZ’9567], the “HCT116 cell SDMA pIC50 MTAP KO” value [1] was 8.6, the “cover of secondary pharmacology targets by plasma free Cmax in rats” value [2] was “none of these targets was covered” and the IC50 [3] was greater than 50 µM. The “LogD (pH 7.4)” value [4] was 3.4, the “liver microscopic examination, hepatocyte glycogen stores” value ([5]; listed as AZMAT2Ai) was “decrease in glycogen stores” and the “liver microscopic examination, hepatocyte glycogen stores” value ([5]; listed as MAT2Ai) was “minimal decrease in hepatocyte glycogen stores”. The “clinical observations during the in-life phase” value ([5]; 3, 10, 30 mg/kg BID, 7 days) was “no clinical observations”, the “liver steatosis, histopathology” value ([5]; 8-days study) was “no histopathological evidence of liver steatosis” and the “food consumption and body weight” value ([5]; all dose groups) was “significant drop”. The liver pathology ([5]; any dose group) was “No significant abnormalities detected”, the bone marrow histopathology ([5]; data not shown) was “bone marrow toxicity affecting mostly the erythroid compartment” and the pancreas histopathology ([5]; loss of both exocrine and endocrine parenchyma, data not shown) was “dose-dependent pancreatic necrosis”. The “histopathological examination of the heart or brain” value ([5]; rat, in vivo) was “No microscopic abnormalities”, the “plasma chemistry: markers of liver injury or cholesterol levels” value ([5]; vehicle vs treated animals) was “no differences” and the “rat plasma fraction unbound” value [6] was 0.00614. It also gave an IC50 [7] of 38.3 µM, an IC50 [8] of 4.1 µM and an IC50 [9] of 9 µM. For the same molecule, the IC50 [10] was 1.6 µM, the IC50 [11] was 49.9 µM and the IC50 [12] was 84.1 µM. The IC50 [13] was 9.5 µM, the IC50 [14] was 44 µM and the IC50 [15] was 10.8 µM.
